Series [1] deals with H1975. In words: Inhibition assay on tumor cell proliferation (CellTiter-Glo), H1975. It counts as cell-based, Human. The settings on record: Homo sapiens, NCI-H1975; H1975 (L858R and T790M EGFR double mutation), 72 hours, 10% bovine serum.
The nature of series [2]: Pharmacokinetics in rats after oral administration. The format is in vivo, SD rats. How it is done: Male SD rats weighing 250-300 g, or male beagles weighing 9-10 kg, were fasted overnight before the experiment. The object compounds were dissolved in 30% sulfobutylated beta-cyclodextrin (SBE-β-CD), and orally administrated to the rats at a dose of 20 mg/kg or to the beagles at a dose of 5 mg/kg. Blood samples were taken at 15 minutes, 30 minutes, 1 hour, 2 hours, 3 hours, 4 hours, 6 hours, 8 hours and 24 hours after administration. 0.3 ml of blood was collected at every time point, placed in a centrifuge tube containing K2-EDTA (ethylenediamine tetraacetic acid dipotassium) and centrifuged (2,000 g, 10 minutes, 4° C.) to collect plasma, which was then stored in an ultra cold storage freezer at −80° C. 50 μL of plasma sample was mixed with 5 μL of internal standard (IS), and then extracted with ethyl acetate. After vacuum drying, the residue was re-dissolved in acetonitrile. The sample was filtered and injected into LC-MS/MS for analysis.

In series [3] the test system is H358. As to the kind of experiment: Inhibition assay on tumor cell proliferation (CellTiter-Glo), H358. The format is cell-based, Human. The settings on record: Homo sapiens, NCI-H358; H358 (wild-type EGFR), 72 hours, 10% bovine serum. In short, it runs like this:
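Viability from ATP content by CellTiter-Glo luminescence; inhibition normalised to DMSO (max) and medium-only (min) wells, IC50 by sigmoidal dose-response fitting. LOVO and H358 carry wild-type EGFR; HCC827 has exon 19 deletion.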
A general note: Cellular ATP, detected with luciferase, serves as a proxy for viable cell number.

Series [4] relates to H1975 xenograft tumor. As to the kind of experiment: Potency assay of tumor model, 16 consecutive days. It counts as in vivo, Balb/C nude mice. The settings on record: oral, 30 mg/kg qd, 16 days. The procedure: Balb/C nude mice were purchased from Beijing Vital River Laboratory Animal Technology Co., Ltd., and housed in SPF animal room. The human non-small-cell lung cancer cell line H1975 in a culture dish was collected by trypsin-EDTA (0.25% trypsin, 1 mM EDTA), and then washed with a serum-free PBS solution. Lastly, the cells were implanted after diluted in a serum-free medium. Only the single cell suspension with a survival rate over 90% (Trypan blue rejection) can be used for injection. 5 million cells suspended in a 0.1 ml serum-free culture were injected into the front right flanking subcutaneous region of each mouse by using a 1 ml syringe and a 25G syringe needle, and the blood vessel was carefully avoided. The tumor size was measured in about one week after implantation. A caliper rule was used to measure the tumor size. The tumor volume was calculated by the following formula: tumor volume=(length×width^2)/2.
This experiment studied the inhibition of tumor growth in H1975 xenograft tumor model by the compounds 20, 50, 91, and 118. When the mean volume of H1975 tumor reached about 260 mm^3, the animals were divided into 5 oral administration groups, that is, excipient control group and groups of oral administration of compound 20, compound 50, compound 91, and compound 118, respectively (n=8/group). These compounds were dissolved in 30% sulfobutylated beta-cyclodextrin (SBE-β-CD) and 1N HCl (pH 3-4). […]

For series [5], the target named is T1, EGFR T790M/L858R (Homo sapiens, UniProt P00533, L858R/T790M).
T1 construct: purchased Invitrogen PR8911A
T1 sequence (P00533 25-1210 T790M/L858R): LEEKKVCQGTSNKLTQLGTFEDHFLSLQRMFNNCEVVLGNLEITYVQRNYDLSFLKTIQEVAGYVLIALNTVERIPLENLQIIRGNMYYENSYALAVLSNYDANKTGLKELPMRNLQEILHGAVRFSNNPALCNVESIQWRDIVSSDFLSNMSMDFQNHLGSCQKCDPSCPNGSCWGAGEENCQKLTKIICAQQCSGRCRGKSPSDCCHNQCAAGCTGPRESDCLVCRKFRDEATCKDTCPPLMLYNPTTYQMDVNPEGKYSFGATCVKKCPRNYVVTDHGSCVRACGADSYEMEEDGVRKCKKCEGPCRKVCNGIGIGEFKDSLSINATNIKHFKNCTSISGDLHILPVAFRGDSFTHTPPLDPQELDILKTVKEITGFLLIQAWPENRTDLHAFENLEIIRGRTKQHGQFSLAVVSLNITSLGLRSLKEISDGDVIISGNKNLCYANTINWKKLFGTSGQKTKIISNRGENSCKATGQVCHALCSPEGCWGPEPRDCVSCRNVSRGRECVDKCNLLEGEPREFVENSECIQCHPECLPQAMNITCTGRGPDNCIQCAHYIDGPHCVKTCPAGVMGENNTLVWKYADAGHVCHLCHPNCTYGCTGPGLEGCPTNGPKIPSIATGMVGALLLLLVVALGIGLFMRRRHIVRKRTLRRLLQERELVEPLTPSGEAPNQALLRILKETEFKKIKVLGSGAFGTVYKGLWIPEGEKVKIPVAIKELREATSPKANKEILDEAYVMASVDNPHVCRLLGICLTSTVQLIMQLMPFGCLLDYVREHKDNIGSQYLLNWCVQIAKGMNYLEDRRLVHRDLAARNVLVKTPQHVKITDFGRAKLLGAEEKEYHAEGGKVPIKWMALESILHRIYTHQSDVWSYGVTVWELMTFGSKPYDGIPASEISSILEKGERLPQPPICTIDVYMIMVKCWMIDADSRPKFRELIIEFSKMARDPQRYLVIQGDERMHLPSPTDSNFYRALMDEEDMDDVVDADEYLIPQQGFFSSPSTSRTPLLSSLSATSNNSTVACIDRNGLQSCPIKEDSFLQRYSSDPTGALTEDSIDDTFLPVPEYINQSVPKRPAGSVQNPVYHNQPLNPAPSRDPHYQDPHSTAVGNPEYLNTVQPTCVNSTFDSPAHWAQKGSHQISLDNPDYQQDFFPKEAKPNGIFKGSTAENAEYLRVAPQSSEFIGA
As to the kind of experiment: Mutant EGFR T790M/L858R activity inhibition assay (Caliper mobility shift). The settings on record: read-out: enzyme activity inhibition (IC50) EGFR T790M/L858R. It counts as biochemical. Put shortly:
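Compound added in 10% DMSO at 5-fold final concentration; substrate conversion read by Caliper mobility shift. Inhibition = (max−conversion)/(max−min)×100, with max from DMSO no-compound wells and min from no-enzyme wells; IC50 from fitted concentration–response curve.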

In series [6] the test system is LOVO. In words: Inhibition assay on tumor cell proliferation (CellTiter-Glo), LOVO. The format is cell-based, Human. The settings on record: Homo sapiens; LOVO (wild-type EGFR), 72 hours, 10% bovine serum. The procedure:
By using a CellTiter-Glo luminescence cell viability test kit (Promega, # G7572), the content of adenosine triphosphate (ATP) was determined to assess the cell viability.
Human colon cancer cell line LOVO and human non-small-cell lung cancer H358 express wild-type EGFR. Human non-small-cell lung cancer cell line HCC827 carries deletion mutation in exon 19 (ex19del). Those cell lines are purchased from Shanghai Fudan IBS Cell Resource Center and American Tissue Culture Collection (ATCC).
The assay procedure is as follows. The cells in a cell culture plate were digested with a pancreatic enzyme, re-suspended in a DPBS culture medium, and had the cell density counted by Scepter automated cytometer (Millipore # PHCC00000). The cells were diluted to a solution of 44,000 cells per ml. The cell solution with adjusted density was added to the cell assay plate at 90 microliters per well. The plate was placed in an incubator with 5% CO2 at 37° C. for 24 hours of incubation, and then added with different concentrations of subject compounds. The cells were incubated for 72 hours with the compounds in presence of 10% bovine serum. The content of ATP was determined by a CellTiter-Glo® Luminescent Cell Viability Assay kit (see the manufacturer's instruction for details) to evaluate cell-growth inhibition.
Briefly, 30 μl of CellTiter-Glo® reagent was added to each well, and then shaken for 10 minutes to induce cell lysis. The fluorescent signal was detected and recorded by Fluoroskan Ascent FL (Thermo). The max signal value was obtained from the cells treated by dimethyl sulfoxide for 72 hours. The min signal value was obtained from the medium alone (the number of the cells was 0). Inhibitory rate %=(max signal value−compound signal value)/(max signal value−min signal value)×100. The data was processed by GraphPad Prism V5.0 software (GraphPad Software, San Diego, Calif.). Sigmoidal dose-response curve fitting was performed to calculate the IC50 value.

Where [7] appears, read: male, SD, rat, 20 mg/kg, plasma.

The record followed here is patent publication US11267802B2 (BEBETTER MED INC., priority 2015, dated 2022).

As usually defined, the AUC(0-inf) is total exposure, with the tail of the curve extrapolated. A lower AUC(0-inf) goes with low exposure. For orientation: Cmax means the maximum level reached in the sampled fluid or tissue. As a reminder, the Tmax is the time from dosing to the highest level. As usually defined, the half-life is how long it takes for the measured level to halve. A lower half-life goes with rapid decline. In the case of `C=CC(=O)Nc1cc(Nc2nccc(-n3ccc4nc(OC)ccc43)n2)c(OC)cc1N(C)CCN(C)C` [Compound 20, N-(2-((2-(dimethylamino)ethyl)(methyl)amino)-4-methoxy-5-((4-(5-methoxy-1H-pyrrolo[3,2-b]pyridin-1-yl)pyrimidin-2-yl)amino)phenyl)acrylamide], in series [1], the IC50 was below 10 nM. Further, the “absorption / blood exposure after oral administration (in words)” value in series [2] is “well absorbed, with high blood exposure”. In series [2] (setting [7]), the AUC(0-inf) is 1450 ng·h/mL, the Cmax was found to be 350 ng/mL, the Tmax was 1.67 h and the half-life was 3.7 h. The AUC(0-t) in series [2] (male, SD, rat, 20 mg/kg, plasma, read-out: AUC0-24) was 1440 ng·h/mL. For the same molecule, the IC50 in series [3] was 100 to 1000 nM. Further, the “inhibition of growth of H1975 xenograft tumor (in words)” value in series [4] is given as “tumor regression”. In addition, the IC50 in series [5] was below 1 nM.
In general, melting point refers to the temperature, or range, at which the solid turns liquid. `C=CC(=O)Nc1cc(Nc2nccc(-n3c(=O)n(C)c4ccccc43)n2)c(C)cc1N(C)CCN(C)C` [Compound 118, N-(2-((2-(dimethylamino)ethyl) (methyl)amino)-4-methyl-5-((4-(3-methyl-2-oxo-2,3-dihydro-1H-benzo[d]imidazol-1-yl)pyrimidin-2-yl)amino)phenyl)acrylamide] returned a melting point of 208 to 210 °C. In addition, the IC50 in series [1] is below 10 nM. Also, the IC50 in series [3] was in the range of 100 to 1000 nM. The “inhibition of growth of H1975 xenograft tumor (in words)” value in series [4] is reported as “tumor regression”. Further, the IC50 in series [5] was below 1 nM.
`C=CC(=O)Nc1cc(Nc2nccc(-n3ccc4cc(OC)ccc43)n2)c(OC)cc1N(C)CCN(C)C` [Compound 27, N-(2-((2-(dimethylamino)ethyl)(methyl)amino)-4-methoxy-5-((4-(5-methoxy-1H-indol-1-yl)pyrimidin-2-yl)amino)phenyl)acrylamide] returned a melting point of 117 to 118 °C. In addition, the IC50 in series [1] is below 10 nM. This molecule registered an IC50 in series [3] of 100 to 1000 nM. The IC50 in series [5] is below 1 nM. In series [6], this molecule returned an IC50 above 1000 nM.
Taken in the same sequence, the figures for `C=CC(=O)Nc1cc(Nc2nccc(-n3c(=O)n(C)c4cc(C#N)ccc43)n2)c(OC)cc1N(C)CCN(C)C` [Compound 52, N-(5-((4-(5-cyano-3-methyl-2-oxo-2,3-dihydro-1H-benzo[d]imidazol-1-yl)pyrimidin-2-yl)amino)-2-((2-(dimethylamino)ethyl)(methyl)amino)-4-methoxyphenyl)acrylamide] were 183 to 185 °C, below 10 nM, 100 to 1000 nM, below 1 nM and above 1000 nM.
Consider `C=CC(=O)Nc1cc(Nc2nccc(-n3ccc4cc(C#N)ccc43)n2)c(OC)cc1N(C)CCN(C)C` [Compound 33, N-(5-((4-(5-cyano-1H-indol-1-yl)pyrimidin-2-yl)amino)-2-((2-(dimethylamino)ethyl)(methyl)amino)-4-methoxyphenyl)acrylamide], for which the melting point fell in the range of 127 to 128 °C. In addition, in series [1], the IC50 was below 10 nM. Also, the IC50 in series [3] was 100 to 1000 nM. Further, the IC50 in series [5] is below 1 nM. In series [6], this molecule registered an IC50 above 1000 nM.
In the case of `C=CC(=O)Nc1cc(Nc2nccc(-n3ccc4ccc(F)cc43)n2)c(OC)cc1N(C)CCN(C)C` [Compound 29, N-(2-((2-(dimethylamino)ethyl)(methyl)amino)-5-((4-(6-fluoro-1H-indol-1-yl)pyrimidin-2-yl)amino)-4-methoxyphenyl)acrylamide], the melting point was 164 to 165 °C. For the same molecule, the IC50 in series [1] was below 10 nM. Further, the IC50 in series [3] lay within 100 to 1000 nM. Also, the IC50 in series [5] is below 1 nM. The IC50 in series [6] was above 1000 nM.
The corresponding values for `C=CC(=O)Nc1cc(Nc2nccc(-n3ccc4ccccc43)n2)c(OC)cc1N1CC[C@@H](N(C)C)C1` [Compound 79, (R)—N-(5-((4-(1H-indol-1-yl)pyrimidin-2-yl)amino)-2-(3-(dimethylamino)pyrrolidin-1-yl)-4-methoxyphenyl)acrylamide] are 161 to 162 °C, 50 to 100 nM, above 1000 nM, below 1 nM and above 1000 nM.
The corresponding values for `C=CC(=O)Nc1cc(Nc2nccc(-n3ccc4cc(C(N)=O)ccc43)n2)c(OC)cc1N(C)CCN(C)C` [Compound 41, 1-(2-((5-acrylamido-4-((2-(dimethylamino)ethyl)(methyl)amino)-2-methoxyphenyl)amino)pyrimidin-4-yl)-1H-indole-5-carboxamide] are 121.3 to 125.1 °C, below 10 nM, 100 to 1000 nM, below 1 nM and above 1000 nM.
Regarding `C=CC(=O)Nc1cc(Nc2nccc(-n3ccc4ccccc43)n2)c(OC)cc1N1CC[C@H](N(C)C)C1` [Compound 78, (S)—N-(5-((4-(1H-indol-1-yl)pyrimidin-2-yl)amino)-2-(3-(dimethylamino)pyrrolidin-1-yl)-4-methoxyphenyl)acrylamide], the melting point fell in the range of 161 to 162 °C. Also, the IC50 in series [1] is 10 to 50 nM. In series [3], the IC50 is above 1000 nM. Also, the IC50 in series [5] lay in the range of 1 to 10 nM. The same molecule had an IC50 in series [6] above 1000 nM.
`CC#CC(=O)Nc1cc(Nc2nccc(-n3ccc4ccccc43)n2)c(OC)cc1N(C)CCN(C)C` [Compound 73, N-(5-((4-(1H-indol-1-yl)pyrimidin-2-yl)amino)-2-((2-(dimethylamino)ethyl)(methyl)amino)-4-methoxyphenyl)but-2-ynamide] gave a melting point of 189.7 to 191.8 °C. The molecule further yielded an IC50 in series [1] of 50 to 100 nM. This molecule also had an IC50 in series [3] above 1000 nM. Moreover, the IC50 in series [5] is 1 to 10 nM. Further, the IC50 in series [6] is above 1000 nM.
